Broadly, the GI50 is the concentration at which growth is held to half of that of the control.

Some test systems named below: NCI/ADR-RES; SK-MEL-2; HCT-15; NCI-H226; SF-295; U-251; HCC 2998; IGROV-1; CCRF-CEM; MDA-MB-435; 786-0; RPMI-8226; ACHN; HOP-92; SF-268; SNB-19; UACC-62; OVCAR-3; SK-MEL-5; HCT-116.
Common to all, as to assay: DTP human tumour cell line panel, 48 h

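Protocol summary: plate cells (96-well), add compound at 5 concentrations, incubate 48 h, interpolate endpoints linearly. GI50 marks 50% less growth.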 Activity calls are given as the source filed them. Cut-off read from the data, not from the text of the source: active = GI50 up to about 1.1 µM and inactive = higher. Some results are limits rather than exact numbers.

Consider `CCN(CC)CCCNc1n[n+]([O-])c2ccccc2[n+]1[O-]`, for which the GI50 in the experiment with NCI/ADR-RES was 42.4 µM (inactive); in the experiment with SK-MEL-2 it was 4.74 µM (inactive); in the experiment with HCT-15, 2.5 µM; in the experiment on NCI-H226, 20.5 µM (inactive); with SF-295 it was 15 µM (inactive); with U-251 it was 18.5 µM (inactive). The GI50 with HCC 2998 is 3.46 µM (inactive); in the experiment with IGROV-1 it was 5.73 µM (inactive); with CCRF-CEM it was 14.2 µM (inactive); in the experiment with MDA-MB-435 it was 38.4 µM (inactive); in the experiment on 786-0 it was 8.69 µM (inactive); in the experiment on RPMI-8226 it was 4.21 µM (inactive). Also, the GI50 is 6.41 µM (inactive) in the experiment with ACHN; 27.1 µM (inactive) in the experiment with HOP-92; 26.4 µM (inactive) in the experiment on SF-268; 25.9 µM (inactive) in the experiment with SNB-19; 8.43 µM (inactive) in the experiment with UACC-62; > 10 µM (inactive) in the experiment on OVCAR-3. Besides, the GI50 in the experiment on SK-MEL-5 is 1.52 µM (inactive); in the experiment on HCT-116, 11 µM (inactive).
Regarding `COc1cc(Nc2cc(Cl)cc(Cl)c2)nc(N)n1`, the GI50 with NCI/ADR-RES was 20.5 µM (inactive); in the experiment with SK-MEL-2, 14.3 µM (inactive); in the experiment on HCT-15, 17.1 µM; in the experiment on NCI-H226, 19.4 µM (inactive); in the experiment on SF-295, 18.6 µM (inactive); with U-251, 15.2 µM (inactive). Besides, the GI50 is 16.6 µM (inactive) in the experiment on HCC 2998; 18.6 µM (inactive) in the experiment with IGROV-1; 17.6 µM (inactive) in the experiment on CCRF-CEM; 24.5 µM (inactive) in the experiment on MDA-MB-435; 17.4 µM (inactive) in the experiment with 786-0; 19.9 µM (inactive) in the experiment on RPMI-8226. Besides, the GI50 was 18.9 µM (inactive) with ACHN; 16.4 µM (inactive) in the experiment with HOP-92; 19.5 µM (inactive) in the experiment on SF-268; 22.9 µM (inactive) in the experiment with SNB-19; 17.1 µM (inactive) with UACC-62; 17.2 µM (inactive) with OVCAR-3. Further, the GI50 is 15.3 µM (inactive) with SK-MEL-5 and 16.9 µM (inactive) in the experiment with HCT-116.
Turning to `CC1=C(Br)C(=O)c2c(O)ccc(O)c2C1=O`, the GI50 with NCI/ADR-RES is 0.555 µM (active); in the experiment on SK-MEL-2 it was 5.83 µM (inactive); in the experiment on HCT-15, 0.342 µM; in the experiment with NCI-H226, 2.67 µM (inactive); in the experiment on SF-295, 1.67 µM (inactive); with U-251 it was 1.5 µM (inactive). Further, the GI50 is 1.75 µM (inactive) in the experiment on HCC 2998; 1.59 µM (inactive) with IGROV-1; 0.0183 µM (active) in the experiment with CCRF-CEM; 0.204 µM (active) with MDA-MB-435; 0.19 µM (active) with 786-0; 0.278 µM (active) in the experiment on RPMI-8226. The concentration for 50% growth inhibition (GI50) with ACHN was 0.869 µM (active); in the experiment on HOP-92, 0.627 µM (active); with SF-268 it was 1.99 µM (inactive); in the experiment with SNB-19, 1.72 µM (inactive); with UACC-62, 0.71 µM (active); in the experiment with OVCAR-3, 0.74 µM (active). Moreover, the concentration for 50% growth inhibition (GI50) with SK-MEL-5 was 0.435 µM (active); with HCT-116, 0.303 µM (active).
Turning to `CC1=C(C(=O)Nc2ccccc2)C2(CCCCC2)C(C#N)=C(SCC(=O)Nc2ccc(Br)cc2)N1`, the GI50 was 3.88 µM (inactive) in the experiment on NCI/ADR-RES; 2.54 µM (inactive) in the experiment on SK-MEL-2; 4.23 µM with HCT-15; 6.84 µM (inactive) with NCI-H226; 4.2 µM (inactive) in the experiment with SF-295; 4.51 µM (inactive) in the experiment with U-251. Also, the GI50 in the experiment on HCC 2998 is 2.54 µM (inactive); with IGROV-1, 3.34 µM (inactive); with CCRF-CEM it was 1.46 µM (inactive); with MDA-MB-435, 4.47 µM (inactive); in the experiment on 786-0, 4.1 µM (inactive); with RPMI-8226 it was 2.08 µM (inactive). Besides, the GI50 in the experiment with ACHN is 4.45 µM (inactive); in the experiment with HOP-92, 3.11 µM (inactive); in the experiment with SF-268 it was 2.2 µM (inactive); in the experiment on SNB-19, 6.49 µM (inactive); with UACC-62, 6.85 µM (inactive); in the experiment on OVCAR-3, 3.27 µM (inactive). The GI50 with SK-MEL-5 is 3.46 µM (inactive); with HCT-116, 2.51 µM (inactive).
For `CC1=CC(=O)c2ccc(C)cc2C1=O` [CHIMAPHILIN], the GI50 in the experiment with NCI/ADR-RES is 10.4 µM (inactive); in the experiment on SK-MEL-2 it was 16.2 µM (inactive); in the experiment on HCT-15 it was 12.7 µM; with NCI-H226 it was 13.8 µM (inactive); in the experiment with SF-295, 17.2 µM (inactive); with U-251 it was 11.5 µM (inactive). Also, the GI50 with HCC 2998 was 19.8 µM (inactive); in the experiment on IGROV-1 it was 15.1 µM (inactive); in the experiment on CCRF-CEM, 2.86 µM (inactive); in the experiment with MDA-MB-435, 2.49 µM (inactive); in the experiment with 786-0, 19.7 µM (inactive); in the experiment with RPMI-8226, 1.77 µM (inactive). The GI50 was 7.45 µM (inactive) with ACHN; 1.85 µM (inactive) in the experiment with HOP-92; 14.3 µM (inactive) in the experiment with SF-268; 16.1 µM (inactive) with SNB-19; 8.18 µM (inactive) in the experiment on UACC-62; 11.8 µM (inactive) in the experiment on OVCAR-3. Further, the values for the GI50 in the experiment on SK-MEL-5 and in the experiment on HCT-116 were 3.82 µM (inactive) and 4.44 µM (inactive), respectively.

The values above are taken from ChEMBL document CHEMBL1201862, “PubChem BioAssay data set” (2004).
